Results from PMC6545883 (Journal of the American Chemical Society, 2019).

Target: PtmO8 (Streptomyces platensis, UniProt A0A0A0UVL0)
Test: steady-state enzyme kinetics
Assay type: biochemical

Km: 34.2 ± 3.6 µM
Compound: NC(=O)c1ccc[n+]([C@@H]2O[C@H](COP(=O)([O-])OP(=O)(O)OC[C@H]3O[C@@H](n4cnc5c(N)ncnc54)[C@H](O)[C@@H]3O)[C@@H](O)[C@H]2O)c1 [NAD^+]
